Assay results as given in patent publication US20080280859A1, “GEMINI VITAMIN D3 COMPOUNDS AND METHODS OF USE THEREOF” (BioXell S.p.A., priority 2005, published 2008).
Marks after values point to notes of the source that are not given here.

Experiments:
[1] = system: ILT3 expression on monocyte-derived immature dendritic cells; test: ILT3 upregulation on monocyte-derived immature dendritic cells (flow cytometry); type: cell-based, human; settings: 24 hours; for upregulation of ILT3 expression: graded doses, up to 1000 nM
Protocol: Immature dendritic cells (DC) were prepared as described in Romani, N. et al., (1996) J. Immunol. Meth. 196:137). Briefly, peripheral blood mononuclear cells (PBMCs) were obtained from a buffy coat by ficoll-hypaque gradient (Pharmacia Biotec AB, Upsala, Sweden) and monocytes isolated from PBMCs by negative selected with a monocyte isolation kit (Milteny, Biotech, Bergish Gladblach, Germany). After isolation, monocytes were cultured for 6 to 7 days at a cell density of 1-2×106 in RPMI medium supplemented with 5% FetalClone I (Hyclone Laboratories, Logan, Utah) 2 mM L-glutamine, […], 1 mM sodium pyruvate and 1% nonessential amino acids, containing 800 U/ml GM-CSF (Mielogen 300, Schering-Plough) and 10 ng/ml interleukin (IL)-4 (PharMingen, San Diego, Calif.). Every other day, approximately 20% of the medium was removed and replaced by the same volume of fresh medium containing GM-CSF and IL-4.
Immunoglobulin-like transcript-3 upregulation was evaluated by flow cytometric analysis. Briefly, cells were preincubated with […] human IgG (Sigma Chemical, St. Louis, Mo.) and subsequently stained with anti-human ILT3 antibody (see, e.g., Cella, M. et al. (1997) J. Exp. Med. 185:1743) followed by anti-mouse IgG-phycoerithryn (Jackson). Cells were then analyzed with a FACScanR flow cytometer using a Cell QuestR software program (both from Beckton Dickinson, Mountain View, Calif.).

HL-60 cells = test: HL-60 (CD14) cell differentiation; type: cell-based; settings: Homo sapiens, HL-60 cell differentiation, read-out: HL-60(CD14) ED50
IFN-γ production = IFN-γ production in the mixed leukocyte response (MLR); type: cell-based; settings: MLR of allogeneic PBMC, 5 days, ELISA; for IC50: 120 h, read-out: INF-γ IC50
Protocol: Immature dendritic cells (DC) were prepared as described in Romani, N. et al., J. Immunol. Meth.

RT112 = test: Proliferation assay, bladder cancer cell line RT112; type: cell-based; settings: Homo sapiens, RT-112; 72 h culture, CyQuant proliferation assay
Protocol: (§1) Bladder cancer cell lines (T24, RT112, HT1376 and RT4 are human bladder cancer cell lines; NHEK are normal human keratinocytes) were obtained from the European Collection of Cell Cultures (Salisbury, UK). […] After a further 72 h of culture, cell proliferation was measured using a fluorescence-based proliferation assay kit. (CyQuant Cell Proliferation Assay Kit, Molecular Probes, Eugene, Oreg., USA). The IC50 was calculated from the regression curve of the titration data.

HT 1376 = test: Proliferation assay, bladder cancer cell line HT 1376; type: cell-based; settings: Homo sapiens, 72 h culture, CyQuant proliferation assay
Protocol: as §1

RT4 = test: Proliferation assay, bladder cancer cell line RT4; type: cell-based; settings: Homo sapiens, RT-4; 72 h culture, CyQuant proliferation assay
Protocol: as §1

NHEK = test: Proliferation assay, normal human keratinocytes NHEK; type: cell-based; settings: 72 h culture, CyQuant proliferation assay
Protocol: as §1

in vivo = settings: female, C57BL/6, mouse, po
VDR = target: T1, VDR (Homo sapiens, UniProt P11473); test: VDR binding; settings: 1,25(OH)2D3 100.0
T1 sequence (P11473 1-427): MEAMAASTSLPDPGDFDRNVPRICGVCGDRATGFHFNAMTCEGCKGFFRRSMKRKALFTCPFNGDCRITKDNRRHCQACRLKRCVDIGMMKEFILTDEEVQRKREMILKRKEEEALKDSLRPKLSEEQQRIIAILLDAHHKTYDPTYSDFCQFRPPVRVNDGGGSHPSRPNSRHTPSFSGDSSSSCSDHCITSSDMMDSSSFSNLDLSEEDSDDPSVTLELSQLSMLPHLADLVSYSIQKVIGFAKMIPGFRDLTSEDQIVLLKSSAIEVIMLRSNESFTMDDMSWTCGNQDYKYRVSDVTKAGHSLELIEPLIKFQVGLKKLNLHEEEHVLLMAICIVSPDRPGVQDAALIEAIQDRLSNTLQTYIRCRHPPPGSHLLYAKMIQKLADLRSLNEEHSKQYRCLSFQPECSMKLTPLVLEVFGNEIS

[2] = system: renin mRNA in As4.1hVDR cells; test: Renin suppression assay (renin mRNA, Northern blot); settings: 10^−10, 10^−9 and 10^−8 M, 24 hours
ECV = test: Proliferation assay, bladder cancer cell line ECV; type: cell-based; settings: Homo sapiens; 72 h culture, CyQuant proliferation assay

SMILES	IC50 (IFN-γ production) [nM]	IC50 (RT112) [µM]	IC50 (RT4) [µM]	MTD (in vivo) [mg/kg]	renin suppression activity compared with 1,25(OH)2D3 [2]	further results
C=C1/C(=C\C=C2/CCC[C@]3(C)[C@@H]([C@@H](CCCC(C)(C)O)CC[C@@H](O)C(C)(C)O)CC[C@@H]23)C[C@@H](O)C[C@@H]1O (stereo in doubt) [Compound 2, 1,25-Dihydroxy-21-(2R,3-dihydroxy-3-methyl-butyl)-20S-cholecalciferol]	–	–	–	–	–	ILT3 mean fluorescence intensity ([1]; 1 nM of compound): 260; upregulation of ILT3 expression ([1]; listed as 1,24R,25-trihydroxy-20R-21-(3-hydroxy-3-methylbutyl)): very favourable upregulation; upregulation of ILT3 expression ([1]; listed as ix): greatest upregulation of ILT3
C=C1/C(=C\C=C2/CCC[C@]3(C)[C@@H]([C@H](C)CCCC(C)(C)O)CC[C@@H]23)C[C@@H](O)C[C@@H]1O [1,25(OH)2D3, reference compound]	0.029	19	45	–	–	EC50 (HL-60 cells): 0.00137 µM; down regulation of INF-γ (class symbol) (IFN-γ production): * (good down regulation of INF-γ (e.g., less than 100 IC50 pM)); IC50 (HT 1376): 50 µM; IC50 (NHEK): 4.9 µM
C=C1/C(=C\C=C2/CCC[C@@]3(C)C2CC[C@@H]3C(CCCC(C)(C)O)CCCC(C)(C)O)CC(O)C[C@@H]1O (stereo partly shown) [Compound 1, 1,25-Dihydroxy-21-(3-hydroxy-3-methyl-butyl)-cholecalciferol, reference compound]	0.022	–	–	0.003	comparable to that of 1,25(OH)2D3	EC50 (HL-60 cells): 0.00034 µM; down regulation of INF-γ (class symbol) (IFN-γ production): * (good down regulation of INF-γ (e.g., less than 100 IC50 pM)); VDR Binding (VDR): 38.0**
C=C1/C(=C\C=C2/CCC[C@]3(C)[C@@H]([C@@H](CCCC(C)(C)O)CC[C@@H](O)C(C)(C)O)CC[C@@H]23)C[C@@H](O)C[C@@H]1O [Compound 2, 1,25-Dihydroxy-21-(2R,3-dihydroxy-3-methyl-butyl)-20S-cholecalciferol]	0.549	1	62	0.03	more potent in suppressing renin expression than 1,25(OH)2D3	EC50 (HL-60 cells): 0.0093 µM; IC50 (ECV): 69.4 µM; IC50 (NHEK): 37.2 µM; VDR Binding (VDR): 0.95**
C=C1/C(=C\C=C2/CCC[C@]3(C)[C@@H]([C@H](CCCC(C)(C)O)CC[C@@H](O)C(C)(C)O)CC[C@@H]23)C[C@@H](O)C[C@@H]1O [Compound 3, 1,25-Dihydroxy-21-(2R,3-dihydroxy-3-methyl-butyl)-20R-cholecalciferol]	0.066	25	71	0.03	comparable to that of 1,25(OH)2D3	EC50 (HL-60 cells): 0.00217 µM; down regulation of INF-γ (class symbol) (IFN-γ production): * (good down regulation of INF-γ (e.g., less than 100 IC50 pM)); IC50 (ECV): 57.9 µM; IC50 (HT 1376): 98 µM; IC50 (NHEK): 46.5 µM; VDR Binding (VDR): 42.10*
C=C1/C(=C\C=C2/CCC[C@@]3(C)C2CC[C@@H]3[C@H](CC#CC(O)(C(F)(F)F)C(F)(F)F)CCCC(C)(C)O)CC(O)C[C@@H]1O (stereo partly drawn) [Compound 4, 1,25-Dihydroxy-21-(3-hydroxy-3-trifluoromethyl-4-trifluoro-butynyl)-20S-cholecalciferol]	–	–	–	–	more potent in suppressing renin expression than 1,25(OH)2D3	–
CC(C)(O)CCCC(CC#CC(O)(C(F)(F)F)C(F)(F)F)[C@H]1CCC2/C(=C/C=C3/CC(O)C[C@H](O)C3)CCC[C@@]21C (stereo partly drawn) [Compound 5, 1,25-Dihydroxy-21-(3-hydroxy-3-trifluoromethyl-4-trifluoro-butynyl)-20R-19-nor-cholecalciferol]	–	–	–	–	comparable to that of 1,25(OH)2D3	–
CC(C)(O)CCC[C@@H](CC#CC(O)(C(F)(F)F)C(F)(F)F)[C@H]1CCC2/C(=C/C=C3/CC(O)C[C@H](O)C3)CCC[C@@]21C (stereo partly drawn) [Compound 6, 1,25-Dihydroxy-21-(3-hydroxy-3-trifluoromethyl-4-trifluoro-butynyl)-20S-19-nor-cholecalciferol]	–	–	–	–	more potent in suppressing renin expression than 1,25(OH)2D3	–
C=C1/C(=C\C=C2/CCC[C@@]3(C)C2CC[C@@H]3C(CC#CC(O)(C(F)(F)F)C(F)(F)F)CCCC(C)(C)O)CC(O)C[C@@H]1O (stereo partly drawn) [Compound 11, 1,25-Dihydroxy-21-(3-hydroxy-3-trifluoromethyl-4-trifluorobutynyl)-20R-cholecalciferol]	–	–	–	–	comparable to that of 1,25(OH)2D3	–
CC(C)(O)CCC[C@@H](CCC(=O)C(C)(C)O)[C@H]1CC[C@H]2/C(=C/C=C3C[C@@H](O)C[C@H](O)C3)CCC[C@]12C [Compound 12, 1,25-Dihydroxy-20S-21-(3-hydroxy-3-methyl-butyl)-24-keto-19-nor-cholecalciferol]	2.97	> 30	2.6	0.03	–	–
C=C1/C(=C\C=C2/CCC[C@]3(C)[C@@H]([C@@H](CCCC(C)(C)O)CCC(=O)C(C)(C)O)CC[C@@H]23)C[C@@H](O)C[C@@H]1O [Compound 14, 1,25-Dihydroxy-20S-21-(3-hydroxy-3-methyl-butyl)-24-keto-cholecalciferol]	0.35	25.5	8.3	0.03	–	–
CC(C)(O)CCC[C@@H](CC[C@@H](O)C(C)(C)O)[C@H]1CC[C@H]2/C(=C/C=C3C[C@@H](O)C[C@H](O)C3)CCC[C@]12C [Compound 38, 1,25-Dihydroxy-21-(2R,3-dihydroxy-3-methyl-butyl)-20S-19-nor-cholecalciferol]	3.86	44	72	> 0.3	–	IC50 (ECV): 99.2 µM; IC50 (HT 1376): > 100 µM; IC50 (NHEK): 57 µM
[2H]C([2H])([2H])C(O)(CCC[C@@H](CC#CC(O)(C(F)(F)F)C(F)(F)F)C1CCC2/C(=C/C=C3C[C@@H](O)C[C@H](O)C3)CCC[C@@]21C)C([2H])([2H])[2H] (stereo partly drawn) [Compound 39, 1,25-Dihydroxy-21(3-hydroxy-3-trifluoromethyl-4-trifluoro-butynyl)-26,27-hexadeutero-19-nor-20S-cholecalciferol]	0.062	7	2.2	0.0003	–	–
[2H]C([2H])([2H])C(O)(CCC[C@@H](CC#CC(O)(C(F)(F)F)C(F)(F)F)C1CCC2/C(=C/C=C3/C[C@@H](O)C[C@H](O)C3=C)CCC[C@@]21C)C([2H])([2H])[2H] (stereo partly drawn) [Compound 40, 1,25-Dihydroxy-21-(3-hydroxy-3-trifluoromethyl-4-trifluoro-butynyl)-26,27-hexadeutero-20S-cholecalciferol]	0.062	6.4	2.2	0.0001	–	–
COc1c(C)c2c(c(O)c1C/C=C(\C)CCC(=O)OCCN1CCOCC1)C(=O)OC2 [Mycophenolate Mofetil, reference compound]	–	–	–	–	–	upregulation of ILT3 expression [1]: fail to upregulate ILT3 expression at any concentration tested
